According to ChEMBL document CHEMBL5537206 (J Med Chem, 2024):
Calls of active or inactive are those of the source. The calls are words filed in the database; no cut-off is given here.

How the values were obtained:
[1] = Toxicity in BALB/c nude mouse assessed as effect on kidney at 20 to 60 mg/kg, ip measured after 22 days by H and E staining based analysis; assay type: organism-based; settings: in vivo, 528 h, dose 20-60 mg/kg, time 22 day
[2] = tested on: Osimertinib-resistant NCI-H1975 cell; test: Antiproliferative activity against human Osimertinib-resistant NCI-H1975 cell (AZDR) incubated for 72 hrs by MTT assay; assay type: functional, cell-based
[3] = tested on: Osimertinib-resistant NCI-H1975 cell; test: Induction of apoptosis in human Osimertinib-resistant NCI-H1975 cell (AZDR) assessed as late apoptotic cells at 0.1 uM incubated for 24 hrs by Annexin V and propidium iodide staining based flow cytometry analysis (reference value: 1.06%); assay type: functional
[4] = tested on: Osimertinib-resistant NCI-H1975 cell; test: Induction of apoptosis in human Osimertinib-resistant NCI-H1975 cell (AZDR) assessed as late apoptotic cells at 10 uM incubated for 24 hrs by Annexin V and propidium iodide staining based flow cytometry analysis (reference value: 1.06%); assay type: functional
[5] = molecular target: T1, Serine/threonine-protein kinase AKT (Homo sapiens) (UniProt P31751+Q9Y243+P31749); test: Inhibition of AKT phosphorylation in human NCI-H1975 cells incubated for 24 hrs by Western blot analysis; assay type: cell-based; settings: dose 0.1-10 µM
[6] = Stability of the compound assessed as half life in presence of glutathione at pH 7.4; assay type: physicochemical; settings: solution containing glutathione
[7] = tested on: Osimertinib-resistant NCI-H1975 cell; test: Induction of apoptosis in human Osimertinib-resistant NCI-H1975 cell (AZDR) assessed as late apoptotic cells at 1 uM incubated for 24 hrs by Annexin V and propidium iodide staining based flow cytometry analysis (reference value: 1.06%); assay type: functional
[8] = tested on: Osimertinib-resistant NCI-H1975 cell; test: Induction of apoptosis in human Osimertinib-resistant NCI-H1975 cell (AZDR) assessed as early apoptotic cells at 10 uM incubated for 24 hrs by Annexin V and propidium iodide staining based flow cytometry analysis (reference value: 3.38%); assay type: functional
MCF7 = test: Antiproliferative activity against human MCF7 cells incubated for 72 hrs by MTT assay; assay type: functional, cell-based; settings: MCF7, 72 h
[9] = tested on: Osimertinib-resistant NCI-H1975 cell; test: Induction of apoptosis in human Osimertinib-resistant NCI-H1975 cell (AZDR) assessed as caspase3/7 activation using caspase-glo 3/7 as substrate incubated for 24 hrs by luminescence based analysis; assay type: functional; settings: dose 0.1-10 µM
[10] = molecular target: T2, Tyrosine-protein kinase ITK/TSK (Homo sapiens) (UniProt Q08881); test: Inhibition of human ITK at 1 uM relative to control
T2 sequence (whole entry): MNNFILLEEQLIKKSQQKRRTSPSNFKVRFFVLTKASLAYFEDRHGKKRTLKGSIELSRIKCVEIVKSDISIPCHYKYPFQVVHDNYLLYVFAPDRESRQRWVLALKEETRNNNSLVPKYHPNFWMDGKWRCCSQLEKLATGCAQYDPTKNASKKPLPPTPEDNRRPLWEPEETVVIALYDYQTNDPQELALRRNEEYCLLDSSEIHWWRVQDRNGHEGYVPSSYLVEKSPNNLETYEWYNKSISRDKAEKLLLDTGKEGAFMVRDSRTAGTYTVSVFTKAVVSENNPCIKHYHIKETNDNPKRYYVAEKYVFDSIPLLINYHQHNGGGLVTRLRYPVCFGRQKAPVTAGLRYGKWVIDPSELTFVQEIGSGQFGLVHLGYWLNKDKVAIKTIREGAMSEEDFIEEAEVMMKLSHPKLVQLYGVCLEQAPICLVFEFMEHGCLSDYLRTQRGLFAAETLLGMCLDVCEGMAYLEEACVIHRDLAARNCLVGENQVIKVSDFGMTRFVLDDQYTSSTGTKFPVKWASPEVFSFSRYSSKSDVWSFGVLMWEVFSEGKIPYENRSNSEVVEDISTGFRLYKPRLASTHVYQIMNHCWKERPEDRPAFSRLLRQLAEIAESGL

NCI-H1975 = test: Antiproliferative activity against human NCI-H1975 cells incubated for 72 hrs by MTT assay; assay type: functional, cell-based; settings: NCI-H1975, 72 h
[11] = Toxicity in BALB/c nude mouse assessed as effect on lung at 20 to 60 mg/kg, ip measured after 22 days by H and E staining based analysis; assay type: organism-based; settings: in vivo, 528 h, dose 20-60 mg/kg, time 22 day
Mus musculus = test: In vivo inhibition of EGFR L858R/T790M mutant in BALB/c nude mouse xenografted with human Osimertinib-resistant NCI-H1975 cell (AZDR) assessed as downregulation of AKT phosphorylation at 60 mg/kg, ip measured after 22 days; assay type: functional, organism-based; settings: time 22.0 day
[12] = molecular target: T1, Serine/threonine-protein kinase AKT (Homo sapiens); test: Inhibition of AKT phosphorylation in human Osimertinib-resistant NCI-H1975 cell (AZDR) at 0.1 to 10 uM incubated for 24 hrs by Western blot analysis; assay type: cell-based; settings: dose 0.1-10 µM
[13] = tested on: Osimertinib-resistant NCI-H1975 cell; test: Anticancer activity against human Osimertinib-resistant NCI-H1975 cell (AZDR) xenografted in BALB/c nude mouse model assessed as increase in tumor cell apoptosis administered as ip dose by TUNEL assay; assay type: functional, organism-based; settings: dose 20-60 mg/kg
[14] = tested on: Osimertinib-resistant NCI-H1975 cell; test: Induction of apoptosis in human Osimertinib-resistant NCI-H1975 cell (AZDR) assessed as early apoptotic cells at 0.1 uM incubated for 24 hrs by Annexin V and propidium iodide staining based flow cytometry analysis (reference value: 3.38%); assay type: functional
[15] = tested on: Osimertinib-resistant NCI-H1975 cell; test: Induction of apoptosis in human Osimertinib-resistant NCI-H1975 cell (AZDR) assessed as increase in number of apoptotic cells measured after 24 hrs by Hoechst 33258 staining based analysis; assay type: functional; settings: dose 0.1-10 µM
[16] = Toxicity in BALB/c nude mouse assessed as effect on liver at 20 to 60 mg/kg, ip measured after 22 days by H and E staining based analysis; assay type: organism-based; settings: in vivo, 528 h, dose 20-60 mg/kg, time 22 day
[17] = Toxicity in BALB/c nude mouse assessed as effect on heart at 20 to 60 mg/kg, ip measured after 22 days by H and E staining based analysis; assay type: organism-based; settings: in vivo, 528 h, dose 20-60 mg/kg, time 22 day
[18] = tested on: Osimertinib-resistant NCI-H1975 cell; test: Anticancer activity against human Osimertinib-resistant NCI-H1975 cell (AZDR) xenografted in BALB/c nude mouse model assessed as reduction in tumor weight administered as ip dose and measured upto 22 days; assay type: functional, organism-based; settings: dose 20-60 mg/kg, time <= 22.0 day
[19] = tested on: Osimertinib-resistant NCI-H1975 cell; test: Inhibition of cell migration in human Osimertinib-resistant NCI-H1975 cell (AZDR) measured after 24 hrs by wound healing assay; assay type: functional, cell-based; settings: dose 0.1-10 µM
[20] = tested on: Osimertinib-resistant NCI-H1975 cell; test: Inhibition of colony formation in human Osimertinib-resistant NCI-H1975 cell (AZDR) measured after 14 days by crystal violet staining based analysis; assay type: functional; settings: dose 0.1-10 µM, time 14.0 day
[21] = Toxicity in BALB/c nude mouse assessed as effect on spleen at 20 to 60 mg/kg, ip measured after 22 days by H and E staining based analysis; assay type: organism-based; settings: in vivo, 528 h, dose 20-60 mg/kg, time 22 day
[22] = tested on: Osimertinib-resistant NCI-H1975 cell; test: Induction of apoptosis in human Osimertinib-resistant NCI-H1975 cell (AZDR) assessed as early apoptotic cells at 1 uM incubated for 24 hrs by Annexin V and propidium iodide staining based flow cytometry analysis (reference value: 3.38%); assay type: functional
[23] = tested on: Osimertinib-resistant NCI-H1975 cell; test: Anticancer activity against human Osimertinib-resistant NCI-H1975 cell (AZDR) xenografted in BALB/c nude mouse model assessed as inhibition of tumor growth administered as ip dose and measured upto 22 days; assay type: functional, organism-based; settings: dose 20-60 mg/kg, time <= 22.0 day
[24] = tested on: Osimertinib-resistant NCI-H1975 cell; test: Induction of apoptosis in human Osimertinib-resistant NCI-H1975 cell (AZDR) assessed as caspase3/7 activation using caspase-glo 3/7 as substrate at 0.1 to 10 uM by luminescence based analysis; assay type: functional; settings: dose 0.1-10 µM, time 24-72 hrs, TDE = time-dependent effect
[25] = Toxicity in BALB/c nude mouse assessed as effect on body weight at 20 to 60 mg/kg, ip measured upto 22 days; assay type: organism-based; settings: in vivo, 528 h, dose 20-60 mg/kg, time < 22 day

T1 sequence (P31749 whole entry, looked up): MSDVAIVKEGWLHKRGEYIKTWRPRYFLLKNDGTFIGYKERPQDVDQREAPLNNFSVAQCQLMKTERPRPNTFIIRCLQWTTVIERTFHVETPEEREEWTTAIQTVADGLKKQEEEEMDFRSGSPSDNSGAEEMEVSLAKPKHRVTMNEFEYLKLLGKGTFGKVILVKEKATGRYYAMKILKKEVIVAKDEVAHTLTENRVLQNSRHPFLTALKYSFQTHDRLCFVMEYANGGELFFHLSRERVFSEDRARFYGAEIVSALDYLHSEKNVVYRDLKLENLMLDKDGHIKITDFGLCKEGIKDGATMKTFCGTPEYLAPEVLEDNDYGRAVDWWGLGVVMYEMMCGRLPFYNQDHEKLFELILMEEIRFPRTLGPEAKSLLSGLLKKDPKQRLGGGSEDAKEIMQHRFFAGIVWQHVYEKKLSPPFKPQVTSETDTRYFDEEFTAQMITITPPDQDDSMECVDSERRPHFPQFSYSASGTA
T1 sequence (P31751 whole entry, looked up): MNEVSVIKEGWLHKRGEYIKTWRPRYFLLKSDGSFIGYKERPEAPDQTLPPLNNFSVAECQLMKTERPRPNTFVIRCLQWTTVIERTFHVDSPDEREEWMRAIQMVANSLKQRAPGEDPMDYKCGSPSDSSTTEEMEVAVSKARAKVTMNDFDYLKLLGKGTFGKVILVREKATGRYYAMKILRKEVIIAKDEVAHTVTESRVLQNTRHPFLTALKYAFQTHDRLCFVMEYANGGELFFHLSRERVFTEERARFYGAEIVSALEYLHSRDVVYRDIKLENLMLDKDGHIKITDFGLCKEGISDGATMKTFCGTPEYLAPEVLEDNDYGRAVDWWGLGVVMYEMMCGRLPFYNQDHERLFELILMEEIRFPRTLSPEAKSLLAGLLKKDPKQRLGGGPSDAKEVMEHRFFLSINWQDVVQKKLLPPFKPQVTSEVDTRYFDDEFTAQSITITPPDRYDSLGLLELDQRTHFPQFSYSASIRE
T1 sequence (Q9Y243 whole entry, looked up): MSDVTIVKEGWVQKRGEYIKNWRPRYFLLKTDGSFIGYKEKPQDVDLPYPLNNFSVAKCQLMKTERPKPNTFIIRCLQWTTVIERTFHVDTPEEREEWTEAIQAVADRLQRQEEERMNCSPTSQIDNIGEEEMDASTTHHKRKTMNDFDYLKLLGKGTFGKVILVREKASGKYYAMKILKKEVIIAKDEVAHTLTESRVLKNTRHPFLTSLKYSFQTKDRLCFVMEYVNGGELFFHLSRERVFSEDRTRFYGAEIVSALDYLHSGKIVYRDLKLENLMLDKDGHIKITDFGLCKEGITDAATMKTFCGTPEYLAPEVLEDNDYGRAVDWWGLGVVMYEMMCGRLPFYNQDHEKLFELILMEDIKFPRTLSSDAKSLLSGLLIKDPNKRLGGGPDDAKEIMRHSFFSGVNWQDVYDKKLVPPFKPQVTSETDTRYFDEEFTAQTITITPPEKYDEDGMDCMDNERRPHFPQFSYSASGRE

IC50 [2]: 670 nM | inhibition [5]: Dose-Dependent Effect | half-life [6]: 13.8 h | IC50 (MCF7): 1270 nM | inhibition [10]: 81% | IC50 (NCI-H1975): 1040 nM | inhibition [12]: Active
SMILES: C=CC(=O)Nc1cccc(Nc2nc(Nc3cnn(CC)c3)nc3ccc(Cl)cc23)c1
Activity [1]: Non-Toxic | Activity [3]: 9.97% | Activity [4]: 30.7% | Activity [7]: 16.1% | Activity [8]: 48.6% | Activity [9]: Dose-Dependent Effect | Activity [11]: Non-Toxic | inhibition (Mus musculus): Active | Activity [13]: Dose-Dependent Effect | Activity [14]: 10.7% | Activity [15]: Dose-Dependent Effect | Activity [16]: Non-Toxic | Activity [17]: Non-Toxic | Activity [18]: Dose-Dependent Effect | inhibition [19]: Active | inhibition [20]: Dose-Dependent Effect | Activity [21]: Non-Toxic | Activity [22]: 17.1% | Activity [23]: Dose-Dependent Effect | Activity [24]: Tde | Activity [25]: Non-Toxic
